# Tests used:
# Type in all cases: cell-based, human
# [1] = test system: MCF-7/vBOS breast cancer cells; assay: Cell stiffness by atomic force microscopy (AFM) indentation
# Method: (§1) FIG. 10 illustrates that inhibition of ERα signaling increases tissue stability by modulating cell mechanics and cell motility. (A) Quantification of cell stiffness (Apparent elastic (Young's) modulus) by atomic force microscopy (AFM) indentation measurements on cells treated with fulvestrant for 48 hours (ERepl.1=0.7141±0.1193 kPa; ERepl.2=0.651±0.1407 kPa; ERepl.3=0.5938±0.1564 kPa; mean±s.d.) compared to solvent control cells (, ERepl.1=0.4841±0.1194 kPa; ERepl.2=0.4088±0.1513 kPa; ERepl.3=0.4660±0.1189 kPa). Biological replicates, n=3; 50-60 cells per condition. Boxes, 25th, 50th (median), and 75th percentiles. Whiskers, 10th and 90th percentiles. Cross, mean for each group. Statistical testing, Mann-Whitney tests; **, p values<0.01. (B) Quantification of cell motility (velocity) by manual tracking of cells treated with fulvestrant for 48 hours (VRepl.1=0.0613±0.0176 μm/min; VRepl.2=0.0553±0.0157 μm/min; VRepl.3=0.051±0.014 μm/min; mean±s.d.) compared to solvent control cells (VRepl.1=0.113±0.0237 μm/min; VRepl.2=0.0757±0.023 μm/min; VRepl.3=0.0827±0.0174 μm/min). Biological replicates, n=3; 3 fields with 10 cells each per replicate and condition were imaged every 10 minutes over the course of 16 h. Boxes, 25th, 50th (median), and 75th percentiles. Whiskers, 10th and 90th percentiles. Cross, mean for each group. Statistical testing, Mann-Whitney tests; **, p values<0.01.
# To test whether anti-estrogens also impact on the biomechanical properties of MCF-7/vBOS breast cancer cells, the inventors performed atomic force microscopy (AFM) indentation measurements on confluent monolayers. For this purpose, MCF7/vBos cells were grown and treated in 35 mm FluoroDish cell culture dishes (WPI) as described above. AFM indentation measurements were performed in CO2 Independent Medium (Gibco) at 37° C. using the NanoWizard 1 or 4 (JPK Instruments). Prior to measurements, tip-less Arrow-TLlsilicone cantilevers (Nanoworld) were equipped with polystyrene beads of 5 μm in diameter (microParticles GmbH, Germany) using epoxy glue, and calibrated using built-in procedures of the SPM software (JPK Instruments). The cantilever was positioned above the confluent epithelial monolayer and lowered with a speed of 10 μm/s. In each experiment, force-distance curves (force setpoint 2.5 nN) from 3-4 different positions per cell were collected. Force-distance curves were transformed into force-versus-tip sample separation curves according to Radmacher (Methods Cell Biol 2002; 68:67-90), and fitted with the Hertz/Sneddon model (27) for a spherical indenter using the JPK Data Processing software (JPK Instruments). […] Apparent elastic (Young's) moduli were determined using the Hertz model for a quadratic pyramid using the JPK Data Processing software (JPK Instruments).
# [2] = test system: MCF-7/vBOS cells; assay: Adherens junction stability: cell rounding after EGTA-containing medium (live imaging); conditions: pre-treated 48 hours; EGTA 8×10^−3 M, 120 minutes; vs control cells
# Method: FIG. 9 provides a CellProfiler/CellProfiler-Analyst-based quantification (analogous to FIG. 7) showing the rate of cell rounding over the course of 120 minutes in MCF7/vBOS cells pre-treated with fulvestrant for 48 hours (dotted bars) compared to solvent control cells (black bars). Indicated time points depict time after application of EGTA-containing medium (EGTA, 8×10^−3 M) to disrupt adherens junctions. Biological replicates, n=3. Error bars, mean+/−s.e.m. Statistical testing, one-way ANOVA with Sidak's correction for multiple comparisons; *, p<0.05; **, p<0.01; ***, p<0.005; ****, p<0.001. Scale bar, 50 μm.
# In a further set of experiments, the inventors tested whether the anti-estrogen-mediated reorganization of adherens junctions likewise increased adherens junction stability in MCF-7/vBOS cells. Therefore, EGTA-containing medium (8×10^−3 M) was applied to both control cells and cells pre-treated for 48 hours with fulvestrant to disrupt homophilic E-Cadherin binding, and the fraction of rounded cells was monitored over the course of 120 minutes by live imaging. Quantification of rounded cells vs. non-rounded cells was done in analogous manner as described above in example 7 for quantification of continuous and discontinuous adherens junctions.
# [3] = test system: MCF7/vBOS cells (DSM ACC3321); assay: Formation of discontinuous basolateral adherens junctions upon anti-estrogen exposure (E-Cadherin immunofluorescence)
# [4] = test system: MCF-7/vBOS breast cancer cells; assay: Cell motility by manual tracking in confluent monolayer after scratch
# Method: as §1
# Given that anti-estrogens increase adherens junction stability and cell rigidity, the inventors asked whether cell motility was likewise affected.
# [5] = test system: MCF-7/BOS cells; assay: Adherens junction morphology upon fulvestrant in parental MCF-7/BOS cells; conditions: 10^−8 M, 48 h
# Method: Next, the inventors tried to reproduce the effects obtained with the cells as deposited under DSM ACC3321 with other conventional MCF-7 cells, namely MCF-7/BOS provided by Prof. Ana Soto (Tufts University School of Medicine, Boston, Mass., USA) and the MCF-7/ACC115 clone obtained from the Leibniz-Institut DSMZ-Deutsche Sammlung von Mikroorganismen and Zellkulturen GmbH (Braunschweig, Germany).
# Briefly, the MCF-7 cells were seeded and grown on glass coverslips in multi-well tissue culture plates (TPP) for 24 h to reach near 100% confluence and then treated for at least 48 h with 0.1% EtOH (solvent control) and the ERα antagonist fulvestrant (Sigma-Aldrich, CAS-No. 129453-61-8) at a concentration of 10^−8 M. During experiments, medium was exchanged on a daily basis. All experiments were performed at 37° C. with 5% CO2 in reduced-serum medium (phenol red-free DMEM (Gibco), 5% FBS (Biochrom, S 0615, LOT1353 W), 1% glutamine, 100 μg/ml streptomycin/100 U/ml penicillin (Biochrom)).
# [6] = treated 48 hours, mean±s.d., replicate 1
# [7] = treated 48 hours, mean±s.d., replicate 2
# [8] = treated 48 hours, mean±s.d., replicate 3
compound,measurement,setting,value
C[C@]12CC[C@@H]3c4ccc(O)cc4C[C@@H](CCCCCCCCC[S+]([O-])CCCC(F)(F)C(F)(F)F)[C@H]3[C@@H]1CC[C@@H]2O (some centres unmarked) [Fulvestrant],cell rigidity,"[1]; throughout the cell surface and at junctional regions, vs solvent control",significantly elevated
same,"Apparent elastic (Young's) modulus, Repl.1",[1]; [6],0.7141±0.1193 kPa
same,"Apparent elastic (Young's) modulus, Repl.2",[1]; [7],0.651±0.1407 kPa
same,"Apparent elastic (Young's) modulus, Repl.3",[1]; [8],0.5938±0.1564 kPa
same,rate of cell rounding,[2],significantly reduced
same,"change in adherens junctions morphology on staining β-Catenin, α-Catenin, p120-Catenin or cortical actin cytoskeleton","[3]; 10^−8 M, at least 48 h",also observable
same,manifestation of phenotype after short exposure,"[3]; exposure for only 2 hours, read after 48 hours in media w/o fulvestrant",lead to manifestation of the discontinuous basolateral adherens junctions phenotype
same,stability of discontinuous adherens junctions independent of the presence of fulvestrant,"[3]; fulvestrant 24 hours, then 24 or 48 hours in fulvestrant-free medium",at least 48
same,"cell motility (velocity), Repl.1",[4]; [6],0.0613±0.0176 μm/min
same,"cell motility (velocity), Repl.2",[4]; [7],0.0553±0.0157 μm/min
same,"cell motility (velocity), Repl.3",[4]; [8],0.051±0.014 μm/min
same,velocity of cells,[4]; vs solvent control,significantly reduced
same,length of cell trajectories,"[4]; vs solvent control, data not shown",significantly reduced
same,adherens junctions morphology in absence and presence of fulvestrant,[5],same continuous adherens junctions morphology
